According to patent US11225505B2, “Antimicrobial polymyxin derivative compounds” (MONASH UNIVERSITY, priority 2015, dated 2022):
Values after ≈ are worked out from the molar mass of the structure shown. Where a SMILES comes first, the peptide text is derived from it. Bridges are numbered along the chain shown (N, C = ends). [ ]: non-standard residue; d: D form. The star is where a group is joined. X58 = Cn1cc(CC(=O)*)c2ccccc21; X22 = Cn1c(C(=O)*)cc2ccccc21; X23 = O=C(c1cc2ccccc2[nH]1)*; X56 = Cn1cc(C(=O)*)c2ccccc21; Dab = NCC[C@H](N)C(=O)O; Abu = CC[C@H](N)C(=O)O; Dap = NC[C@H](N)C(=O)O

Legend:
Type in all cases: cell-based
[1] = test system: Acinetobacter baumannii FADDI-AB030; assay: microbe, parasite or virus in culture; conditions: FADDI-AB030
How it was run: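 Broth microdilution MIC in cation-adjusted Mueller-Hinton broth per CLSI M100-S24; lipopeptides tested as TFA salts. FADDI-AB030 is a multidrug-resistant clinical isolate. Polymyxin B sulphate served as control.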

[2] = test system: Klebsiella pneumoniae FADDI-KP032; conditions: FADDI-KP032
How it was run: (§1)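 Values are MICs of the lipopeptide trifluoroacetic acid salts. Dilution series were set up in CAMHB as CLSI M100-S24 specifies.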

[3] = test system: Pseudomonas aeruginosa FADDI-PA022; conditions: FADDI-PA022
How it was run: as §1

[4] = test system: Pseudomonas aeruginosa ATCC 27853; conditions: ATCC 27853
How it was run: as §1

[5] = test system: Pseudomonas aeruginosa FADDI-PA01; conditions: FADDI-
How it was run: as §1

[6] = test system: Klebsiella pneumoniae FADDI-KP022; conditions: FADDI-KP022
How it was run: as §1

[7] = test system: Acinetobacter baumannii ATCC 17978; conditions: ATCC 17978
How it was run: as §1

[8] = test system: Enterobacter cloacae FADDI-EC003; conditions: FADDI-EC003
How it was run: as §1

[9] = test system: Enterobacter cloacae FADDI-EC006; conditions: FADDI-EC006
How it was run: as §1

[10] = test system: Pseudomonas aeruginosa FADDI-PA038; conditions: FADDI-PA038
How it was run: as §1

[11] = test system: Enterobacter cloacae FADDI-EC001; conditions: FADDI-EC001
How it was run: (§2)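 Following CLSI procedure M100-S24, minimum inhibitory concentrations of trifluoroacetate lipopeptides are measured in cation-adjusted Mueller-Hinton medium by broth microdilution, alongside a polymyxin B sulphate control.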

[12] = test system: Acinetobacter baumannii FADDI-AB034; conditions: FADDI-AB034
How it was run: as §1

[13] = test system: Klebsiella pneumoniae Kp BM1; conditions: Kp BM1
How it was run: as §2

Work on `CC[C@@H]1NC(=O)[C@@H](CC(C)C)NC(=O)[C@H](CCN)NC(=O)[C@@H](NC(=O)[C@H](CN)NC(=O)[C@@H](NC(=O)[C@H](CCN)NC(=O)Cc2cn(C)c3ccccc23)[C@@H](C)O)CCNC(=O)[C@H]([C@@H](C)O)NC(=O)[C@H](CCN)NC(=O)[C@H](CCN)NC1=O` [Compound 62] (X58-[Dab]T[Dap][Dab][Dab][dL][Abu][Dab][Dab]T; lactam 4-C) yielded a Minimum inhibitory concentration [1] of 0.5 µg/mL (≈ 0.432 µM), a Minimum inhibitory concentration [2] of under 0.125 µg/mL and a Minimum inhibitory concentration [3] of 0.5 µg/mL (≈ 0.432 µM). The Minimum inhibitory concentration [4] was 0.5 µg/mL (≈ 0.432 µM), the Minimum inhibitory concentration [5] was 1 µg/mL (≈ 0.863 µM) and the Minimum inhibitory concentration [6] was under 0.125 µg/mL. It also gave a Minimum inhibitory concentration [7] of 0.5 µg/mL (≈ 0.432 µM), a Minimum inhibitory concentration [8] of 0.25 µg/mL (≈ 0.216 µM) and a Minimum inhibitory concentration [9] of 0.5 µg/mL (≈ 0.432 µM). The Minimum inhibitory concentration [10] was 0.5 µg/mL (≈ 0.432 µM), the Minimum inhibitory concentration [11] was under 0.125 µg/mL and the Minimum inhibitory concentration [12] was 0.5 µg/mL (≈ 0.432 µM). The Minimum inhibitory concentration [13] was 0.25 µg/mL (≈ 0.216 µM).

With `CC[C@@H]1NC(=O)[C@@H](CC(C)C)NC(=O)[C@H](CCN)NC(=O)[C@@H](NC(=O)[C@H](CN)NC(=O)[C@@H](NC(=O)[C@H](CCN)NC(=O)c2cn(C)c3ccccc23)[C@@H](C)O)CCNC(=O)[C@H]([C@@H](C)O)NC(=O)[C@H](CCN)NC(=O)[C@H](CCN)NC1=O` [Compound 63] (X56-[Dab]T[Dap][Dab][Dab][dL][Abu][Dab][Dab]T; lactam 4-C) the Minimum inhibitory concentration [1] was 0.5 µg/mL (≈ 0.437 µM), the Minimum inhibitory concentration [2] was under 0.125 µg/mL and the Minimum inhibitory concentration [3] was 0.25 µg/mL (≈ 0.218 µM). It also gave a Minimum inhibitory concentration [4] of 0.5 µg/mL (≈ 0.437 µM), a Minimum inhibitory concentration [5] of under 0.125 µg/mL and a Minimum inhibitory concentration [6] of under 0.125 µg/mL. It also gave a Minimum inhibitory concentration [7] of 1 µg/mL (≈ 0.874 µM), a Minimum inhibitory concentration [8] of 2 µg/mL (≈ 1.75 µM) and a Minimum inhibitory concentration [9] of 2 µg/mL (≈ 1.75 µM). For the same compound, the Minimum inhibitory concentration [10] was 0.5 µg/mL (≈ 0.437 µM), the Minimum inhibitory concentration [11] was under 0.125 µg/mL and the Minimum inhibitory concentration [12] was 1 µg/mL (≈ 0.874 µM). For the same compound, the Minimum inhibitory concentration [13] was under 0.125 µg/mL.

With `CC(C)C[C@H]1NC(=O)[C@H](CCN)NC(=O)[C@@H](NC(=O)[C@H](CN)NC(=O)[C@@H](NC(=O)[C@H](CCN)NC(=O)c2cc3ccccc3n2C)[C@@H](C)O)CCNC(=O)[C@H]([C@@H](C)O)NC(=O)[C@H](CCN)NC(=O)[C@H](CCN)NC(=O)[C@H]([C@@H](C)O)NC1=O` [Compound 64] (X22-[Dab]T[Dap][Dab][Dab][dL]T[Dab][Dab]T; lactam 4-C) the Minimum inhibitory concentration [1] was 1 µg/mL (≈ 0.862 µM), the Minimum inhibitory concentration [2] was 0.5 µg/mL (≈ 0.431 µM) and the Minimum inhibitory concentration [3] was 0.25 µg/mL (≈ 0.215 µM). The Minimum inhibitory concentration [4] was 0.5 µg/mL (≈ 0.431 µM), the Minimum inhibitory concentration [5] was 0.5 µg/mL (≈ 0.431 µM) and the Minimum inhibitory concentration [6] was 0.25 µg/mL (≈ 0.215 µM). For the same compound, the Minimum inhibitory concentration [7] was 2 µg/mL (≈ 1.72 µM), the Minimum inhibitory concentration [8] was 1 µg/mL (≈ 0.862 µM) and the Minimum inhibitory concentration [9] was 2 µg/mL (≈ 1.72 µM). It also gave a Minimum inhibitory concentration [10] of 1 µg/mL (≈ 0.862 µM), a Minimum inhibitory concentration [11] of 1 µg/mL (≈ 0.862 µM) and a Minimum inhibitory concentration [12] of 1 µg/mL (≈ 0.862 µM). For the same compound, the Minimum inhibitory concentration [13] was 0.5 µg/mL (≈ 0.431 µM).

In the case of `CC(C)C[C@H]1NC(=O)[C@H](CCN)NC(=O)[C@@H](NC(=O)[C@H](CN)NC(=O)[C@@H](NC(=O)[C@H](CCN)NC(=O)c2cc3ccccc3n2C)[C@@H](C)O)CCNC(=O)[C@H]([C@@H](C)O)NC(=O)[C@H](CCN)NC(=O)[C@H](CCN)NC(=O)[C@H](C)NC1=O` [Compound 65] (X22-[Dab]T[Dap][Dab][Dab][dL]A[Dab][Dab]T; lactam 4-C), the Minimum inhibitory concentration [1] is reported as 0.5 µg/mL (≈ 0.442 µM), the Minimum inhibitory concentration [2] is reported as 0.5 µg/mL (≈ 0.442 µM) and the Minimum inhibitory concentration [3] is reported as 0.25 µg/mL (≈ 0.221 µM). For the same compound, the Minimum inhibitory concentration [4] was 0.5 µg/mL (≈ 0.442 µM), the Minimum inhibitory concentration [5] was 0.25 µg/mL (≈ 0.221 µM) and the Minimum inhibitory concentration [6] was 0.25 µg/mL (≈ 0.221 µM). It also gave a Minimum inhibitory concentration [7] of 1 µg/mL (≈ 0.885 µM), a Minimum inhibitory concentration [8] of 1 µg/mL (≈ 0.885 µM) and a Minimum inhibitory concentration [9] of 1 µg/mL (≈ 0.885 µM). For the same compound, the Minimum inhibitory concentration [10] was 0.5 µg/mL (≈ 0.442 µM), the Minimum inhibitory concentration [11] was 0.5 µg/mL (≈ 0.442 µM) and the Minimum inhibitory concentration [12] was 1 µg/mL (≈ 0.885 µM). The Minimum inhibitory concentration [13] was 0.25 µg/mL (≈ 0.221 µM).

With `CC(C)C[C@H]1NC(=O)[C@H](CCN)NC(=O)[C@@H](NC(=O)[C@H](CN)NC(=O)[C@@H](NC(=O)[C@H](CCN)NC(=O)c2cc3ccccc3[nH]2)[C@@H](C)O)CCNC(=O)[C@H]([C@@H](C)O)NC(=O)[C@H](CCN)NC(=O)[C@H](CCN)NC(=O)[C@H]([C@@H](C)O)NC1=O` [Compound 66] (X23-[Dab]T[Dap][Dab][Dab][dL]T[Dab][Dab]T; lactam 4-C) the Minimum inhibitory concentration [1] was 1 µg/mL (≈ 0.872 µM), the Minimum inhibitory concentration [2] was 1 µg/mL (≈ 0.872 µM) and the Minimum inhibitory concentration [3] was 0.25 µg/mL (≈ 0.218 µM). For the same compound, the Minimum inhibitory concentration [4] was 0.5 µg/mL (≈ 0.436 µM), the Minimum inhibitory concentration [5] was 2 µg/mL (≈ 1.74 µM) and the Minimum inhibitory concentration [6] was 0.5 µg/mL (≈ 0.436 µM). It also gave a Minimum inhibitory concentration [7] of 2 µg/mL (≈ 1.74 µM), a Minimum inhibitory concentration [8] of 0.5 µg/mL (≈ 0.436 µM) and a Minimum inhibitory concentration [9] of 1 µg/mL (≈ 0.872 µM). For the same compound, the Minimum inhibitory concentration [10] was 2 µg/mL (≈ 1.74 µM), the Minimum inhibitory concentration [11] was 0.5 µg/mL (≈ 0.436 µM) and the Minimum inhibitory concentration [12] was 1 µg/mL (≈ 0.872 µM). The Minimum inhibitory concentration [13] was 0.5 µg/mL (≈ 0.436 µM).
